According to ChEMBL document CHEMBL5727778, “Pyrimidine derivative and use thereof” (2020):

Each molecule was assayed against ALK tyrosine kinase receptor (Homo sapiens, UniProt Q9UM73) (assay: Inhibition Assay: 1× Kinase Buffer 50 mM HEPES. pH 7.5 0.0015% Brij-35 10 mM MgCl2 2 mM DTT 2) stop buffer 100 mM HEPES, pH 7.5 0.015% Brij-35 0.2% Coating Reagent #3 50 mM EDTAPrepare a Compound Solution to be Tested Step 2.1 Dilute the compound to 50× of the final desired highest inhibitor concentration in reaction by 100% DMSO. Transfer 100 μl of this compound dilution to a well in a 96-well plate. For example, if desired highest inhibitor concentration is 1 μM, then prepare 50 μM of compound DMSO solution in this step.).
ALK tyrosine kinase receptor, sequence (Q9UM73 whole entry): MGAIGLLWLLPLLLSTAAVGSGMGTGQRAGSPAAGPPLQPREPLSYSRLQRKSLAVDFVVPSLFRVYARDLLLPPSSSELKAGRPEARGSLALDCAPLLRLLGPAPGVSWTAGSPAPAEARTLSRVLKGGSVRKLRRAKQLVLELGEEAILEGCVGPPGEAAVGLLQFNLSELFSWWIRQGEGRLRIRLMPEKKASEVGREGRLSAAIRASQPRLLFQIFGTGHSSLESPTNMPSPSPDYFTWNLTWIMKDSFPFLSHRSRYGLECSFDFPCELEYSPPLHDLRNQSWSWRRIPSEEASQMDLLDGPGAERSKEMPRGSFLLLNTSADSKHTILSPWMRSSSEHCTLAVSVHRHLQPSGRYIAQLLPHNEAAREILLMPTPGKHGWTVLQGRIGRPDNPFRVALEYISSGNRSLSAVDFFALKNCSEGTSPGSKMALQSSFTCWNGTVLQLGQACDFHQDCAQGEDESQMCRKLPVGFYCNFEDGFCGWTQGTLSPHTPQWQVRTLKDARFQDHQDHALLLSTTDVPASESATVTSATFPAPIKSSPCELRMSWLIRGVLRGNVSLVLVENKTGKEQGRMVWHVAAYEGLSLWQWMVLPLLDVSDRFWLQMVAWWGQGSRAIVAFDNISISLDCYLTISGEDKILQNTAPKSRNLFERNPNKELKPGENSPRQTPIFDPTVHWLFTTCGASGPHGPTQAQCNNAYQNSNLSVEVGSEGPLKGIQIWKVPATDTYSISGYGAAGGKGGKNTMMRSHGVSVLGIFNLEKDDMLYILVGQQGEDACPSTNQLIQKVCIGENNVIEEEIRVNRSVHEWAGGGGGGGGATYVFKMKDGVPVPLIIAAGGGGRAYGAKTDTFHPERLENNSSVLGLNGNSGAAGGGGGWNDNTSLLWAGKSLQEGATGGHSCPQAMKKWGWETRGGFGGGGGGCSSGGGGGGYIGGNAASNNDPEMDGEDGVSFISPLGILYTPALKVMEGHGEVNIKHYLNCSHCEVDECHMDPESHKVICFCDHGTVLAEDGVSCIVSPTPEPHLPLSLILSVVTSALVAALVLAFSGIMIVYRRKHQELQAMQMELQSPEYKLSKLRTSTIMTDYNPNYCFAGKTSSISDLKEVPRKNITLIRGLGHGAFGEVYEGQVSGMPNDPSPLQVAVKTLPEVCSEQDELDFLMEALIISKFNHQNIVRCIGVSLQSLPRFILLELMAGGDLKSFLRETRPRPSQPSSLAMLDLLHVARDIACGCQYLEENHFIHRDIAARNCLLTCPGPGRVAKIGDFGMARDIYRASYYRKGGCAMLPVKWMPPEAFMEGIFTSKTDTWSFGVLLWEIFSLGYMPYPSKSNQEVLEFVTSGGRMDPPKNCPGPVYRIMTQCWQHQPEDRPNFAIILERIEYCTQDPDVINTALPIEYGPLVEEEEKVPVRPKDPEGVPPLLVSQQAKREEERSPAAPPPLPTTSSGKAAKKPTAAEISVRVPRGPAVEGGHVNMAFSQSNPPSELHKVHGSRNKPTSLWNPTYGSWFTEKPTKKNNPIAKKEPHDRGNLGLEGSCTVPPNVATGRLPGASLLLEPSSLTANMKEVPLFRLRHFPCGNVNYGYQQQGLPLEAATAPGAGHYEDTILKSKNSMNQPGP

Row | Compound | IC50 [nM]
1 | COc1cc(N2CCC(O)CC2)ccc1Nc1ncc(Cl)c(Nc2ccsc2S(=O)(=O)C(C)C)n1 | < 1
2 | COc1cc(N2CCC(N3CCOCC3)CC2)ccc1Nc1ncc(Cl)c(Nc2ccsc2S(=O)(=O)C(C)C)n1 | < 1
3 | COc1cc(N2CCOCC2)ccc1Nc1ncc(Cl)c(Nc2ccsc2S(=O)(=O)C(C)C)n1 | < 1
4 | COc1cc(N2CCC(N(C)C)CC2)ccc1Nc1ncc(Cl)c(Nc2ccsc2S(=O)(=O)C(C)C)n1 | < 1

More lines, now with the values ahead:

Row | IC50 [nM] | Compound
5 | < 1 | COc1cc(N2CCC(N3CCC(N(C)C)CC3)CC2)ccc1Nc1ncc(Cl)c(Nc2ccccc2S(=O)(=O)C(C)C)n1
6 | < 1 | COc1cc(N2CCN(C)CC2)ccc1Nc1ncc(Cl)c(Nc2ccsc2S(=O)(=O)C(C)C)n1
7 | < 1 | CC(C)S(=O)(=O)c1ccccc1Nc1nc(Nc2ccc(N3CCC(N(C)C)CC3)cc2OC(F)F)ncc1Cl
8 | < 1 | COc1cc(N2CCN(C)CC2)ccc1Nc1ncc(Cl)c(Nc2ccccc2S(=O)(=O)C(C)C)n1
9 | < 1 | COc1cc(N2CCC(N(C)C)CC2)ccc1Nc1ncc(Cl)c(Nc2ccccc2S(=O)(=O)C(C)C)n1
